Source: patent US9993426B2, “Bisacodyl compositions and delivery apparatus” (C.B. FLEET COMPANY INCORPORATED, priority 2015, dated 2018)

Columns and labels:
[1] = cited from earlier work
[2] = Water solubility (qualitative statement); format: physicochemical
Source text: Ready-to-use bisacodyl preparations have a short shelf-life (i.e., less than 18 months), can experience settling, and result in waste (e.g., a significant portion of the drug remains in the package). There is a need in the art for a ready-to-use bisacodyl preparation with a longer shelf life and less wasteful apparatus for delivery into the colon.

[3] = Source text: The molecular formula for bisacodyl is (C22H19NO4), and the molecular weight is 361.39 gram/mole.

| water solubility [2] | aqueous molar solubility [3] | Compound | time to have an effect ([1]; administered orally, 5-10 milligrams) | time in which usually effective ([1]; administered rectally in suppository form, 10 mg) |
| --- | --- | --- | --- | --- |
| poor water solubility | 3.4 µM | CC(=O)Oc1ccc(C(c2ccc(OC(C)=O)cc2)c2ccccn2)cc1 [Bisacodyl, 4,4′-(pyridin-2-ylmethylene)bis(4,1-phenylene) diacetate] | 6 to 12 h | 15 to 60 min |
| poor water solubility | – | Oc1ccc(C(c2ccc(O)cc2)c2ccccn2)cc1 [desacetyl bisacodyl] | – | – |
